From patent US8530465B2, “1, 2-disubstituted amido-anthraquinone derivatives, preparation method and application thereof” (National Defense Medical Center, priority 2010, dated 2013)

Experiments:
hTERT = test: Secreted alkaline phosphatase (SEAP) assay, PhTERT-SEAP (H1299); assay type: cell-based; details: Homo sapiens, 24 hours; for activity at 1 µM: NCI-H1299, Conc. 1 μM, read-out: Relative SEAP activity (%); for activity at 10 µM: NCI-H1299, Conc. 10 μM; for activity at 10 µM / activity at 100 µM: read-out: Relative SEAP activity (%) (converted); for activity at 100 µM: NCI-H1299, Conc. 100 μM
Experimental: H1299 were grown in RPMI 1640 media supplemented with 10% fetal bovine serum, 100 units/mL penicillin and […] streptomycin in a humidified atmosphere with 5% CO2 at 37° C. Culture media were changed every three days. To establish stable cell lines that the expression of hTERT could be monitored by a reporter system, a about 3.3 kbp DNA fragment ranging from −3338 to +1 bp of the hTERT gene (hTERT promoter, PhTERT) was subcloned upstream to a secreted alkaline phosphatase gene (SEAP) and transfected into H1299 by electroporation. The stable clones were selected using G418. The stable clones derived from H1299 were cultured using conditions that are similar to their parental cells.
Secreted alkaline phosphatase was used as the reporter system to monitor the transcriptional activity of hTERT. Here, about 10^4 cells each were grown in 96-well plates and incubated at 37° C. for 24 hours and changed with fresh media. Varying amounts of drugs were added and cells were incubated for another 24 hours. Culture media were collected and heated at 65° C. for 10 min to inactivate heat-labile phosphatases. An equal amount of SEAP buffer (2 M diethanolamine, 1 mM MgCl2, and 20 mM L-homoarginine) was added to the media and p-nitrophenyl phosphate was added to a final concentration of 12 mM. Absorptions at 405 nm were taken, and the rate of absorption increase is determined (the increasing rate of absorbance at 405 nm was used to represent the activity of SEAP).

[1] = MTT assay, PhTERT-SEAP (H1299); assay type: cell-based, human; details: human, H1299 cells carrying the PhTERT-SEAP reporter, PhTERT-SEAP (H1299); for viability at 1 μM: Conc. 1 μM, read-out: Relative MTT viability (%); for viability at 10 μM: Conc. 10 μM; for viability at 10 μM / viability at 100 μM: read-out: Relative MTT viability (%) (converted); for viability at 100 μM: Conc. 100 μM
Experimental: Further, cells were subjected to MTT assay to compare the relative toxicity or effect of each compound on cell proliferation and activity.
The above-described cells are cultured in a 96-well plate, to which was added with 25 μl MTT solution, and cultured in a 37° C. carbon dioxide incubator for 4 hours. Then, 100 μl Lysis buffer is added and incubated in a 37° C. carbon dioxide incubator overnight. An ELISA reader (Bio-Rad Model 450) is used to read optical density (O.D.) at 550 nm.

Row | melting point [°C] | Compound | activity at 1 µM (hTERT) [%] | activity at 10 µM (hTERT) [%] | activity at 100 µM (hTERT) [%] | viability at 1 μM [1] [%] | viability at 10 μM [1] [%] | viability at 100 μM [1] [%]
1 | 182 to 183 | O=C(CCl)Nc1ccc2c(c1NC(=O)CCCl)C(=O)c1ccccc1C2=O [CC-07, 1-[(3-chloropropanyl)amido]-2-(chloroacetamido)-anthraquinone] | 114 ± 6.14 | 92.9 | 15.2 | 103 ± 7.01 | 79.9 | 19
2 | 163 to 164 | O=C(CCl)Nc1ccc2c(c1NC(=O)CCCCl)C(=O)c1ccccc1C2=O [CC-08, 1-[(4-chlorobutanyl)amido]-2-(chloroacetamido)-anthraquinone] | 108 ± 9.03 | 97.1 | 30.9 | 100 ± 4.4 | 117 | 62
3 | 203 to 204 | O=C(CCl)Nc1ccc2c(c1NC(=O)c1ccccc1)C(=O)c1ccccc1C2=O [CC-09, 1-(benzamido)-2-(chloroacetamido)-anthraquinone] | 96.3 ± 3.31 | 94.7 | 16 | 101 ± 4.37 | 83.8 | 5.38
4 | 202 to 203 | Cc1cccc(C(=O)Nc2c(NC(=O)CCl)ccc3c2C(=O)c2ccccc2C3=O)c1 [CC-11, 1-(3-methylbenzamido)-2-(chloroacetamido)-anthraquinone] | 116 ± 14.8 | -1.91 | -3.1 | 72.8 ± 3.83 | 0.7 | 
5 | 193 to 194 | O=C(CCl)Nc1ccc2c(c1NC(=O)c1ccccc1Cl)C(=O)c1ccccc1C2=O [CC-16, 1-(2-chlorobenzamido)-2-(chloroacetamido)-anthraquinone] | 81.6 ± 48.2 | 5.35 | 1.23 | 102 ± 4.26 | 6.63 | 
6 | 188 to 189 | O=C(CCl)Nc1ccc2c(c1NC(=O)c1cccc(Cl)c1)C(=O)c1ccccc1C2=O [CC-17, 1-(3-chlorobenzamido)-2-(chloroacetamido)-anthraquinone] | 80.9 ± 3.9 | 6.65 | 3.51 | 89.7 ± 2.74 | 5.08 | 
7 | 224 to 225 | O=C(CCl)Nc1ccc2c(c1NC(=O)c1ccc(Cl)cc1)C(=O)c1ccccc1C2=O [CC-18, 1-(4-chlorobenzamido)-2-(chloroacetamido)-anthraquinone] | 98.7 ± 5.6 | 6.26 | 4.95 | 92.4 ± 7.16 | 5.17 | 4.25
8 | 248 to 250 | O=C(CCl)Nc1ccc2c(c1NC(=O)c1ccccc1C(F)(F)F)C(=O)c1ccccc1C2=O [CC-19, 1-[2-(trifluoromethyl)benzamido]-2-(chloroacetamido)-anthraquinone] | 93.5 ± 6.11 | 4.89 | 2.4 | 93.2 ± 2.95 | 3.42 | 
9 | 203 to 204 | O=C(CCl)Nc1ccc2c(c1NC(=O)c1ccc(C(F)(F)F)cc1)C(=O)c1ccccc1C2=O [CC-21, 1-[4-(trifluoromethyl)benzamido]-2-(chloroacetamido)-anthraquinone] | 85.9 ± 8 | 8.61 ± 0.0611 | 6.49 | 86.3 ± 2.6 | 6.58 | 
10 | 187 to 188 | O=C(CCl)Nc1ccc2c(c1NC(=O)c1cc(C(F)(F)F)ccc1C(F)(F)F)C(=O)c1ccccc1C2=O [CC-22, 1-1-[2,5-bis-(trifluoromethyl)benzamido]-2-(chloroacetamido)-anthraquinone] | 90.3 ± 1.77 | 5.11 | 4.11 | 86.7 ± 2.13 | 8.81 | 
11 | 191 to 192 | O=C(CCl)Nc1ccc2c(c1NC(=O)C1CC1)C(=O)c1ccccc1C2=O [CC-25, 1-[(cyclopropanecarbonyl)amino]-2-(chloroacetamido)-anthraquinone] | 83.8 ± 2.67 | 3.46 | 1.38 | 88.7 ± 3.92 |  | 
12 | 211 to 212 | O=C(CCl)Nc1ccc2c(c1NC(=O)c1ccco1)C(=O)c1ccccc1C2=O [CC-27, 1-[(2-furoyl)amino]-2-(chloroacetamido)-anthraquinone] | 84.7 ± 23.3 | 2.94 | 2.62 | 80.4 ± 3.56 |  | 

The next lines start with the molecule.

Row | Compound | melting point [°C] | activity at 1 µM (hTERT) [%] | activity at 10 µM (hTERT) [%] | activity at 100 µM (hTERT) [%] | viability at 1 μM [1] [%] | viability at 10 μM [1] [%] | viability at 100 μM [1] [%]
13 | Nc1ccc2c(c1N)C(=O)c1ccccc1C2=O [1,2-diaminoanthraquinone, reference compound] |  | 98.5 ± 11.7 | 77.3 | 18.2 |  |  | 
14 | O=C(CCCl)Nc1ccc2c(c1NC(=O)CCCl)C(=O)c1ccccc1C2=O [CC-02, 1,2-bis-(3-chloropropionamido)-anthraquinone] | 179 to 180 | 96.3 ± 3.31 | 94.7 | 16 | 101 ± 4.37 | 83.8 | 5.38
15 | O=C(CCCCl)Nc1ccc2c(c1NC(=O)CCCCl)C(=O)c1ccccc1C2=O [CC-03, 1,2-bis-(4-chlorobutyramido)-anthraquinone] | 154 to 155 | 114 ± 6.14 | 92.9 | 15.2 | 103 ± 7.01 | 79.9 | 19
16 | Nc1c(NC(=O)CCl)ccc2c1C(=O)c1ccccc1C2=O [CC-05, 1-(amino)-2-(chloroacetamido)-anthraquinone] | 193 to 194 | 42 ± 4.16 | 6.73 ± 0.83 | 3.23 ± 1.22 | 64.3 ± 8.97 |  | 
17 | Cc1ccccc1C(=O)Nc1c(NC(=O)CCl)ccc2c1C(=O)c1ccccc1C2=O [CC-10, 1-(2-methylbenzamido)-2-(chloroacetamido)-anthraquinone] | 179 to 180 | 98.6 ± 7.92 | -3.13 | -5.69 | 73.8 ± 7.94 |  | 
18 | O=C(CCl)Nc1ccc2c(c1NC(=O)c1ccccc1F)C(=O)c1ccccc1C2=O [CC-13, 1-(2-fluorobenzamido)-2-(chloroacetamido)-anthraquinone] | 245 to 246 | 105 ± 12.7 | 5.89 | 2.11 | 78.8 ± 7.83 | 2.77 | 
19 | O=C(CCl)Nc1ccc2c(c1NC(=O)c1cccc(C(F)(F)F)c1)C(=O)c1ccccc1C2=O [CC-20, 1-[3-(trifluoromethyl)benzamido]-2-(chloroacetamido)-anthraquinone] | 190 to 191 | 99.8 ± 4.15 | 4.53 | 0.32 | 94.7 ± 3.59 | 5.15 | 3.37
20 | O=C(CCl)Nc1ccc2c(c1NC(=O)Cc1ccc(F)cc1)C(=O)c1ccccc1C2=O [CC-24, 1-[2-(4-fluorophenyl)acetylamino]-2-(chloroacetamido)-anthraquinone] | 213 to 214 | 93.1 ± 5.96 | 8.4 | 1.75 | 88.9 ± 5.07 | 7.31 | 6.17
21 | O=C(CCl)Nc1ccc2c(c1NC(=O)C1CCCCC1)C(=O)c1ccccc1C2=O [CC-26, 1-[(cyclohexanecarbonyl)amino]-2-(chloroacetamido)-anthraquinone] | 216 to 217 | 82.5 ± 4.53 | 3.07 | 1.76 | 82.3 ± 4.4 | 1.54 | 
22 | O=C(CCl)Nc1ccc2c(c1NC(=O)c1cccs1)C(=O)c1ccccc1C2=O [CC-28, 1-[(2-thiophenecarbonyl)amino]-2-(chloroacetamido)-anthraquinone] | 190 to 191 | 5.81 ± 23.3 | 3.03 | 2.2 |  |  | 
23 | O=C1c2c(O)ccc(O)c2C(=O)c2c(NCCNCCO)ccc(NCCNCCO)c21 [mitoxantrone, reference compound] |  | 20.8 ± 1.56 | 9.92 | 7.19 |  |  | 
